Consider 14 molecules from ChEMBL document CHEMBL6153137, “Design, Synthesis, and Biological Evaluation of Novel Orally Available Covalent CDK12/13 Dual Inhibitors for the Treatment of Tumors” (J Med Chem, 2025).

Converted amounts (≈) assume the structure as drawn.

Data set [1] concerns the target CDK12/Cyclin K (Homo sapiens, UniProt Q9NYV4). As to the kind of experiment: Inhibition of CDK12/Cyclin K (unknown origin) using pS7-CTD peptide and ATP as substrate incubated for 120 mins by ADP-Glo reagent based luminescence analysis. It counts as protein-complex assay. (ADP-Glo first removes unused ATP, then detects ADP through luciferase.)
Data set [2] concerns the target Cyclin-dependent kinase 13/Cyclin-K (Homo sapiens, UniProt Q14004). Put plainly: Inhibition of CDK13/Cyclin K (unknown origin) using pS7-CTD peptide and ATP as substrate incubated for 120 mins by ADP-Glo reagent based luminescence analysis. It counts as protein-complex assay.
A short description of data set [3]: Clearance in CD-1 mouse at 1 mg/kg, iv measured for 24 hrs by LC-MS/MS analysis. The data set is classed as ADME, organism-based. Conditions: in vivo.
A short description of data set [4]: GSH reactivity assessed as half life to adduct formation at 0.1 uM by LC-MS/MS analysis. The data set is classed as physicochemical.
A short description of data set [5]: Cmax in CD-1 mouse at 5 mg/kg, po measured for 24 hrs by LC-MS/MS analysis. As to conditions: in vivo. The data set is classed as ADME, organism-based.
Data set [6] can be described thus: Half life in CD-1 mouse at 5 mg/kg, po measured for 24 hrs by LC-MS/MS analysis. The data set is classed as ADME, organism-based. Conditions: in vivo.
A short description of data set [7]: GSH reactivity assessed as half life to adduct formation at 1 uM by LC-MS/MS analysis. It counts as physicochemical.
Data set [8] can be described thus: GSH reactivity assessed as half life to adduct formation at 10 uM by LC-MS/MS analysis. It counts as physicochemical.
Data set [9] can be described thus: AUC (0 to infinity) in CD-1 mouse at 5 mg/kg, po by LC-MS/MS analysis. The data set is classed as ADME, organism-based. As to conditions: in vivo.
Data set [10] is described as follows: Oral bioavailability in CD-1 mouse at 5 mg/kg measured for 24 hrs by LC-MS/MS analysis. The data set is classed as ADME, organism-based. Conditions: in vivo.
For data set [11], the system named is SUM149PT. Put plainly: Antiproliferative activity against human SUM149PT cells assessed as inhibition of cell growth incubated for 7 days by CellTiter-Glo reagent based luminescence analysis. The data set is classed as functional. As to conditions: 168 h. In general terms: In ATP-based viability assays light output follows the ATP content of the culture.
A short description of data set [12]: Volume of distribution at steady state in CD-1 mouse at 1 mg/kg, iv measured for 24 hrs by LC-MS/MS analysis. The data set is classed as ADME, organism-based. As to conditions: in vivo, read-out: Vdss.
Data set [13] can be described thus: AUC (0 to infinity) in CD-1 mouse at 1 mg/kg, iv by LC-MS/MS analysis. It counts as ADME, organism-based. Conditions: in vivo.
Data set [14] can be described thus: Protein binding in mouse plasma assessed as free fraction at 400 uM incubated for 4 hrs by equilibrium dialysis method based LC-MS/MS analysis. The data set is classed as ADME, cell-free. In general terms: Equilibrium dialysis compares concentrations on both sides of a semipermeable membrane.
Data set [15] can be described thus: Kinetic solubility of the compound in phosphate buffer at pH 7.4 measured after 24 hrs by HPLC-UV analysis. It counts as physicochemical. As to conditions: read-out: Kinetic_solubility.
A short description of data set [16]: Protein binding in human plasma assessed as free fraction at 400 uM incubated for 4 hrs by equilibrium dialysis method based LC-MS/MS analysis. The data set is classed as ADME, cell-free.
Data set [17] in a line: Toxicity against Balb/c mouse xenografted with human SUM149PT cells assessed as reduction in body weight at 20 mg/kg, po administered once daily via gavage for 2 days and measured after second dose. Conditions: in vivo, 48 h, time 2 day. It counts as organism-based. Details: scale not given: the % may be the effect or the level left.
Data set [18] is described as follows: Permeability of the compound in human Caco-2 cells at 2 uM incubated for 2 hrs by LC-MS/MS analysis. As to conditions: read-out: permeability. It counts as ADME, cell-based.

Sequence of Cyclin-dependent kinase 13/Cyclin-K (Q14004 whole entry): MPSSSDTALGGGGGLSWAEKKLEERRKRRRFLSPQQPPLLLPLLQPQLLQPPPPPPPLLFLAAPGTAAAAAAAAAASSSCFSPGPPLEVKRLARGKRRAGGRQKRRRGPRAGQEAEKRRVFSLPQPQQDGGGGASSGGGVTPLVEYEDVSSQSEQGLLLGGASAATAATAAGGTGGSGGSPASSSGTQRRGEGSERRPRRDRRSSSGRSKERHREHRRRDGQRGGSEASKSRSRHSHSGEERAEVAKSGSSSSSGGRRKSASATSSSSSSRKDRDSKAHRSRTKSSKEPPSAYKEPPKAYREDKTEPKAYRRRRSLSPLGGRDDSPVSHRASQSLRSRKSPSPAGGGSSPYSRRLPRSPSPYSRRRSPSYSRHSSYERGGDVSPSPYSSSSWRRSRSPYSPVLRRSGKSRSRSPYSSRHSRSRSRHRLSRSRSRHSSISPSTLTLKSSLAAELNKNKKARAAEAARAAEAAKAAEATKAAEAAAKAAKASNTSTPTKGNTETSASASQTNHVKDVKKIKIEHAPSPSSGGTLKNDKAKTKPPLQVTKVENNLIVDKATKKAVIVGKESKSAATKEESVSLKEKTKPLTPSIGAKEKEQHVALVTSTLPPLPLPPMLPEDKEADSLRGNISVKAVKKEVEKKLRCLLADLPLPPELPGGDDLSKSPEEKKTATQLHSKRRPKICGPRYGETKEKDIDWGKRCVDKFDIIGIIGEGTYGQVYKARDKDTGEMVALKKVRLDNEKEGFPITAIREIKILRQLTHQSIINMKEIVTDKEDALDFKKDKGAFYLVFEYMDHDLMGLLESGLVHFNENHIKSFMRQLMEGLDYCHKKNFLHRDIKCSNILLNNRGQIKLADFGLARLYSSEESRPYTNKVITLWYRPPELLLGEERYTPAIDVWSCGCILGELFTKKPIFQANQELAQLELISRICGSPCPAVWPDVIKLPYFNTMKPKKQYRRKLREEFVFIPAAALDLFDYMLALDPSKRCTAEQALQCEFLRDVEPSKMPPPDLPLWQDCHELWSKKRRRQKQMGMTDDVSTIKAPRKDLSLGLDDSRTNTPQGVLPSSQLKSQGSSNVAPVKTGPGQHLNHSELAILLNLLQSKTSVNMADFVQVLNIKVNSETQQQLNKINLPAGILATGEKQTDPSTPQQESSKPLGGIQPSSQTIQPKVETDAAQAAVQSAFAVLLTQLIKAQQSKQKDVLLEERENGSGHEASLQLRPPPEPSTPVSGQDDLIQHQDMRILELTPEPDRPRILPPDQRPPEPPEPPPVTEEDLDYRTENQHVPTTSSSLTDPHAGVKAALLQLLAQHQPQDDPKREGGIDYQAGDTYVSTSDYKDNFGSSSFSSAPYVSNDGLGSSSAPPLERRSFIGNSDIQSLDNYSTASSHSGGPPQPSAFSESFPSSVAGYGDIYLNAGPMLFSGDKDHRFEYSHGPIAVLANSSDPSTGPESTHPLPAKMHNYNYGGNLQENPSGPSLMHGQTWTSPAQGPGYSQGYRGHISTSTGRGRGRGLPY
Sequence of Cyclin-dependent kinase 13/Cyclin-K (O75909 whole entry, further chain): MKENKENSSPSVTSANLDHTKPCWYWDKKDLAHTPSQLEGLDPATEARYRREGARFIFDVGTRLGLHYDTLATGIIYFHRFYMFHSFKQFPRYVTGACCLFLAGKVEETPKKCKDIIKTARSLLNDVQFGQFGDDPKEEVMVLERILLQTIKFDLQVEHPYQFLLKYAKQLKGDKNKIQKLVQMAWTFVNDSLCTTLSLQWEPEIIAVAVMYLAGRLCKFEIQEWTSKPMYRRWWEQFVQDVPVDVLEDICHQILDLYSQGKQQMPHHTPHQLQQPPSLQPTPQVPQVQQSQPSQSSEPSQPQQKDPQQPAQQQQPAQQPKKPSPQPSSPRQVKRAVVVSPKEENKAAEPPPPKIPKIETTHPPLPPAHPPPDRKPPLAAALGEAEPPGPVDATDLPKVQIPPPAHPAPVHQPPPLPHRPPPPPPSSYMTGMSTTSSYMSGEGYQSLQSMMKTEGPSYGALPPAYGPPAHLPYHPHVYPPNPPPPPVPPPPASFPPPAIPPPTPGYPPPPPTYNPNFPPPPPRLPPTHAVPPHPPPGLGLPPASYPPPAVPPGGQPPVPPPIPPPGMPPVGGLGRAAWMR
Sequence of CDK12/Cyclin K (O75909 whole entry): as the sequence (O75909 whole entry, further chain) above
Sequence of CDK12/Cyclin K (Q9NYV4 whole entry): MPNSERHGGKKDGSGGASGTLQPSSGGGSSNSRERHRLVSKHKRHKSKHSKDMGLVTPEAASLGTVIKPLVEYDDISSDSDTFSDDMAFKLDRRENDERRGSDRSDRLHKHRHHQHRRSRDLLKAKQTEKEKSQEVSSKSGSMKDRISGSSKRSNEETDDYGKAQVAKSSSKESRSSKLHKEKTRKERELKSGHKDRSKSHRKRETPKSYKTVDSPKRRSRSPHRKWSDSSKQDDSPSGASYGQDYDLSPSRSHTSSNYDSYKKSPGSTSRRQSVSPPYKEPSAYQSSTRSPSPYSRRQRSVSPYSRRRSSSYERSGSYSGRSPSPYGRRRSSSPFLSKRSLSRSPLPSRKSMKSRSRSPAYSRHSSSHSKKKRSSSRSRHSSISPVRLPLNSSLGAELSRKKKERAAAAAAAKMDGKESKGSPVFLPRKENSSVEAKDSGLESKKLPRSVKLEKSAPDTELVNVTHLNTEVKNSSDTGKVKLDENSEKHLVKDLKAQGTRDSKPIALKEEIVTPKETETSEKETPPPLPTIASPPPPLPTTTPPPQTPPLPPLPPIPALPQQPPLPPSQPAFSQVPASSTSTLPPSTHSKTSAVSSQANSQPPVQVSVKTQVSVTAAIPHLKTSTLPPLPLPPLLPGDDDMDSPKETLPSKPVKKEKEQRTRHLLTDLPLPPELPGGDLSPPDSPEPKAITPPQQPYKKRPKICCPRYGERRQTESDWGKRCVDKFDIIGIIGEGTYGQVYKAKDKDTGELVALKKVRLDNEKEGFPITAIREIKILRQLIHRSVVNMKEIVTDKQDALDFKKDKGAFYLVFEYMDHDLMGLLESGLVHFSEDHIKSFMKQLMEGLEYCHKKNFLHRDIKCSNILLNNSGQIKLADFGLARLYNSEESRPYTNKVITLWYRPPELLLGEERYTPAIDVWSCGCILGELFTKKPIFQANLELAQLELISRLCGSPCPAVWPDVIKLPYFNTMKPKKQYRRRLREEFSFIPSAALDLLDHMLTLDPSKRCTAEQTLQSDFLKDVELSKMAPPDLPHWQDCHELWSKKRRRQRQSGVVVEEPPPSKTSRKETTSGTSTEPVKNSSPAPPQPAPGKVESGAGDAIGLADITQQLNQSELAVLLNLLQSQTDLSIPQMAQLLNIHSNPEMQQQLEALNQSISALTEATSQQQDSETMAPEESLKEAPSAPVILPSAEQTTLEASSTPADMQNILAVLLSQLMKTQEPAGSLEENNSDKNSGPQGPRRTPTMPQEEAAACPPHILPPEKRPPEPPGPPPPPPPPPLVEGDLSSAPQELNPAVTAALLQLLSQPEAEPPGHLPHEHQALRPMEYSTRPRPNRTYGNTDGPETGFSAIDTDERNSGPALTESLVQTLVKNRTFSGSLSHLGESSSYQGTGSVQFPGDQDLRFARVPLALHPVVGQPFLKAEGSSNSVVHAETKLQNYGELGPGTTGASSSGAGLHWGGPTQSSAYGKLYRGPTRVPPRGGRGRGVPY

One may read the IC50 as the concentration needed to halve the response being measured. For the molecule `C=CC(=O)[C@H]1CC[C@H](C(=O)N2CC[C@@H](Nc3ncc(Cl)c(OC)n3)C2)CC1`, the IC50 in data set [1] came out at 3740 nM; in data set [2], 2740 nM.

Usually clearance stands for the volume of plasma or blood freed of the substance per unit of time. The term Cmax denotes the maximum level reached in the sampled fluid or tissue. Broadly, the half-life is the time in which the quantity being followed falls by half. A word on the AUC(0-inf): it is the area under the concentration-time curve extrapolated to infinity. For orientation: bioavailability means dose-corrected exposure relative to a reference, in per cent. `CC#CC(=O)N1CCc2c(ncnc2N2CC[C@@H](Nc3ncc(Cl)c(OC)n3)C2)C1` gave a clearance in data set [3] of 179 mL/min/kg. Moreover, the t1/2 in data set [4] worked out at 315.5 min; in data set [7], 324.4 min; in [8] it was 379.4 min. Also, the Cmax in data set [5] is 101 ng/mL. The same molecule showed a half-life in data set [6] of 15 min. Also, the AUC(0-inf) in data set [9] came to 54.7 ng·h/mL; in data set [13], 93.8 ng·h/mL. In [10], this molecule showed a bioavailability of 11.2%. The IC50 in data set [11] came out at 226 nM; in data set [2], 235 nM. For the same molecule, in data set [12], the Vd amounted to 0.35 L/kg.

`C=CC(=O)N1Cc2ccnc(N3CC[C@@H](Nc4ncc(Cl)c(OC)n4)C3)c2C1`: in [2], the IC50 was determined as 76.1 nM.

Turning to `C=CC(=O)N1CC2(CCC(C(=O)N3CC[C@@H](Nc4ncc(Cl)c(OC)n4)C3)CC2)C1`, the IC50 in data set [1] is 669 nM; in data set [2] it was 756 nM.

Turning to `C=CC(=O)N1CCc2c(nc(OC)nc2N2CC[C@@H](Nc3ncc(Cl)c(OC)n3)C2)C1`, the values for the IC50 in data set [11] and in data set [2] were 336 nM and 95.4 nM, respectively.

For the molecule `C=CC(=O)N1CCc2c(nc(N3CCCC3=O)nc2N2CC[C@@H](Nc3ncc(Cl)c(OC)n3)C2)C1`, the IC50 in [11] stood at 457 nM; in [2], 198 nM.

Turning to `C=CC(=O)NC12CC(C(=O)N3CC[C@@H](Nc4ncc(Cl)c(OC)n4)C3)(C1)C2`, the IC50 in data set [1] amounted to 2410 nM; in data set [2] it was 2750 nM.

By fraction unbound is commonly meant free concentration divided by total concentration. Regarding `C=CC(=O)Nc1ccc(C(=O)N2CC[C@@H](Nc3ncc(Cl)c(OC)n3)C2)cc1`, the unbound share (fraction unbound) at 4 h, 400 µM in data set [14] was 0.038; in data set [16] it was 0.003. Moreover, the t1/2 in [4] amounted to 39.7 min; in [7], 40.2 min; in data set [8], 43 min. In addition, the IC50 in [1] worked out at 6.9 nM; in [11], 2.64 nM; in [2], 9.22 nM. Also, in [15], the solubility kinetic at 24 h was determined as 48.2 µg/mL (≈ 120 µM). In addition, in data set [17], the Activity came to 10%. Besides, the Vd in data set [12] came out at 0.66 L/kg. The Papp at 2 h, 2 µM in data set [18] came out at 2.87 ×10⁻⁶ cm/s.

In the case of `C=CC(=O)N1CCc2c(nc(C)nc2N2CC[C@@H](Nc3ncc(Cl)c(OC)n3)C2)C1`, the IC50 in [11] stood at 155 nM; in data set [2] it was 74.8 nM.

On to `C=CC(=O)N1CCc2c(nc(N3CCN(C)C(=O)C3)nc2N2CC[C@@H](Nc3ncc(Cl)c(OC)n3)C2)C1`, for which the IC50 in data set [11] was found to be 276 nM.

For the molecule `C=CC(=O)N1Cc2ncnc(N3CC[C@@H](Nc4ncc(Cl)c(OC)n4)C3)c2C1`, the IC50 in data set [11] stood at 509 nM; in data set [2], 343 nM.

For the molecule `C=CC(=O)N1CCc2c(ccnc2N2CC[C@@H](Nc3ncc(Cl)c(OC)n3)C2)C1`, the IC50 in [11] worked out at 317 nM; in [2], 107 nM.

Consider `C=CC(=O)N1CCc2c(nc(N3CCOCC3)nc2N2CC[C@@H](Nc3ncc(Cl)c(OC)n3)C2)C1`, for which the IC50 is 532 nM in [11] and 165 nM in data set [2].

Consider `C=CC(=O)N1CCC(C(=O)N2CC[C@@H](Nc3ncc(Cl)c(OC)n3)C2)CC1`, for which the IC50 in data set [1] is 2270 nM; in data set [2], 1760 nM.
